≈ marks a conversion by molar mass, not a printed value. Read-outs that look alike come from different tables or passages of the source.
Key:
[1] = system: Staphylococcus aureus ATCC 35556 biofilm formation; test: Inhibition of biofilm formation (crystal violet); assay type: cell-based; conditions: 24 hours treatment, also sub-inhibitory concentration
Experimental: Staphylococcus aureus ATCC 35556 was treated with various concentrations of compound 8, compound 35 or 1% DMSO as negative control for 24 hours. Biofilm was quantified using crystal violet. The data were normalized to DMSO (100% biofilm) and represent average values±S.D. (n=9 per group). Statistical analysis was performed by ANOVA with Dunnett's post-test to calculate p-values adjusted for multiple comparisons with DMSO as control condition (*p<0.05; **p<0.01; ***p<0.001).
Briefly, overnight cultures of Staphylococcus aureus ATCC 35556 in Tryptic Soy Broth (TSB) were sub-cultured from an overnight culture 1:100 for 2.5 hours. The bacteria were diluted 1:100 into fresh TSB and 200 μL bacteria in TSB was added to each well of a flat-bottomed 96-well plate (200 μL/well). Compounds (two-fold serial dilutions; final DMSO concentration of maximum 1%) were added. Plates were incubated at 37° C. for 24 hours. After 24 hours, the supernatant was removed and washed by PBS (200 μL) 2 times. Biofilms were dried at 37° C. for 30 minutes. 1% Crystal violet (25% ethanol in H2O) was diluted 1:5 in PBS and 200 μL was added to each well, followed by incubation at room temperature for 10 minutes. […] Following a 1:4 dilution step (33% acetic acid), optical density was measured at 595 nm by Beckman Coulter DTX 880 Multimode Detector. […]

[2] = system: multidrug resistant Staphylococcus aureus Mu3; test: MIC by CLSI broth micro-dilution, MRSA Mu3; assay type: cell-based
Experimental: (§1) Aminoxy acids were synthesized by the standard peptide coupling procedures. Minimum inhibitory concentration was determined using CLSI broth micro-dilution method in 96-wells microtitre plates. Minimum inhibitory concentration is defined as the lowest concentration of the compound that inhibits visible growth of the bacteria. All experiments were performed three times. 24 compounds including aminoxy acid monomers and dipeptides have been identified to show toxicity against multidrug resistant Staphylococcus aureus Mu3 and summarized in Table 1. The minimum inhibitory concentration of compound 8 and compound 35 on other gram-positive bacteria was also evaluated and summarized in Table 2. […] As shown in FIGS. 3A-3B there are no observable hemolysis for compound 8 and compound 35 towards human red blood cell.
(§2) Bacteria were streaked from the glycerol stock into BHI agar and were incubated overnight. Single colony was picked for the overnight culture in cation-adjusted Mueller Hinton broth (CAMH), LB or BHI. The overnight culture was sub-cultured and regrew to exponential phase for the experiment.
MIC was determined by CLSI broth micro-dilution method in 96-wells microtitre plates. For compounds dissolved in water, 100 μL of 2× testing concentration was added to the first well of each column, followed by two-fold serial dilution for successive wells with 50 μL medium. For chemical compounds dissolved in DMSO, the compounds were two-fold serial diluted by DMSO in a DMSO-compatible 96-well plate. 1 μL of compound in DMSO was transferred into 96-wells microtitre plate containing 50 μL medium to give 2× testing concentration. An overnight culture of bacteria was grown into exponential phase. The bacteria culture was diluted to 1×10^6 CFU/mL and 50 μL of diluted culture were added into each well. The test plates were kept in a 37° C. incubator overnight. Optical density was recorded by DTX 880 multimode detector (Beckman Coulter, California, US). MIC is defined as the lowest concentration of the compound that inhibits visible growth of bacteria. Biological replicates were performed. CAMH was used for bacteria culture and MIC test except S. pneumoniae, L. monocytogenes, E. faecalis and M. smegmatis for which BHI was used as culture medium

[3] = system: L. monocytogenes clinical strain; test: MIC by CLSI broth micro-dilution, L. monocytogenes; assay type: cell-based; conditions: Listeria monocytogenes, BHI medium, read-out: Minimum inhibitory concentration
Experimental: as §1, §2
MIC was determined by CLSI broth micro-dilution method in 96-wells microtitre plates. […] Optical density was recorded by DTX 880 multimode detector (Beckman Coulter, California, US). […]

[4] = system: Staphylococcus aureus strain USA300-LAC; test: Lethal bacteremia infection model, survival; assay type: in vivo, Balb/c mice; conditions: 10 mg/kg/day intraperitoneal, twice per day, 7 days
Experimental: FIG. 8 is a line graph showing compound 8 and compound 35 rescue mice from Staphylococcus aureus bacteremia infection model. Statistical analysis was performed with a log rank test (Mantel Cox test). (*p<0.05).
Staphylococcus aureus strain USA300-LAC were cultured to the early exponential phase of growth, washed twice with sterile phosphate-buffered saline solution (PBS), and resuspended in PBS at 3×10^7 CFU/200 μL for lethal bacteremia model. The female Balb/c mice, 6-8 weeks, were infected intravenously (i.v.) through the tail vein with Staphylococcus aureus and randomized into three groups (N=11 for vehicle; N=12 for compound 8 and compound 35 respectively). Six hour after infection, mice received intraperitoneal injections of compound 8 or compound 35 (10 mg/kg/day) or an injection of buffer (PBS with 2.5% DMSO and 2% Tween-80) as the control. The compound and injection buffer treatments were performed twice per day at 12-h intervals. The challenged mice were monitored for 7 days, at which point all the remaining mice were sacrificed. Statistical analysis was performed with a log rank test (Mantel Cox test). (*p<0.05).

[5] = system: Staphylococcus aureus ATCC 29213; test: Scanning and transmission electron microscopy; assay type: cell-based; conditions: 24 hours treatment, SEM and TEM
Experimental: FIGS. 16A-16B are the images showing the compound 8 and compound 35 can induced the cell burst of Staphylococcus aureus. (FIG. 16A) Cells are imaged under scanning electron microscope. (FIG. 16B) Cells are imaged under transmission electron microscope.
Briefly, an overnight culture of Staphylococcus aureus ATCC 29213 was sub-cultured 1:100 in fresh CAMH and regrown for 2 hours. Then the bacteria were treated with compound or DMSO negative control for 24 hours. The bacterial pellet was resuspended in PBS and loaded on 0.22 μm filter membrane. The bacteria were fixed on the membrane by 2.5% glutaraldehyde for overnight at 4° C. The filter membranes were washed by PBS and subsequently dehydrated using ethanol as shown below.
The samples were submitted to HKU Electron Microscope Unit (EMU) for critical point drying, mounting and coating of the specimens. Samples were then observed using LEO 1530 FEG Scanning Electron Microscope.
Briefly, an overnight culture of Staphylococcus aureus ATCC 29213 was sub-cultured 1:100 in fresh CAMH and regrown for 2 hours. Then the bacteria were treated with compound or negative control DMSO for 24 hours. The bacterial pellet was then washed by PBS and fixed in cacodylate buffer (0.1 M sodium cacodylate-HCl buffer pH 7.4) for 1 hour at 4° C. […]

[6] = MRSA Mu3 (Table 2), read-out: Minimum inhibitory concentration
[7] = MRSA, CLSI broth micro-dilution, CAMH, read-out: Minimum inhibitory concentration (μM) in MRSA Mu3

SMILES	formation of the Staphylococcus aureus biofilm [1]	MIC [2, 6]	MIC [2, 7]	MIC [3]	rescue of mice from bacteremia infection (survival) [4]	cell morphology under electron microscope [5]
CC(C)C[C@H](ONC(=O)[C@@H](COCc1ccccc1)ONC(=O)c1cc(C(F)(F)F)cc(C(F)(F)F)c1)C(=O)Nc1ccccc1 [Compound 8]	significantly inhibited the formation of the Staphylococcus aureus biofilm even under sub-inhibitory concentration	3.13 µM (≈ 2.05 µg/mL)	3.13 µM (≈ 2.05 µg/mL)	6.25 µM (≈ 4.1 µg/mL)	can rescue mice	severe cell abnormality including cell burst and irregular shape of cell wall
CC(C)C[C@H](ONC(=O)[C@@H](COCc1ccccc1)ONC(=O)c1cc(C(F)(F)F)cc(C(F)(F)F)c1)C(=O)Nc1ccc2c(c1)OC(F)(F)O2 [Compound 35]	significantly inhibited the formation of the Staphylococcus aureus biofilm even under sub-inhibitory concentration	0.78 µM (≈ 0.574 µg/mL)	0.781 µM (≈ 0.574 µg/mL)	0.78 µM (≈ 0.574 µg/mL)	can rescue mice	severe cell abnormality including cell burst and irregular shape of cell wall

— patent US20240315992A1, “AMINOXY ACID-BASED ANTIBACTERIAL COMPOUNDS AND METHODS THEREOF” (The University of Hong Kong, priority 2023, published 2024)
